Experimental data reported in US12383572B2, “Administration of an anti-activin-a compound to a subject” (AMGEN INC., priority 2013, dated 2025).

How the values were obtained:
[1] = test system: TOV-21G xenografts; assay: TOV-21G xenograft, sActRIIB and 5-FU chemotherapy combination; assay type: in vivo, human; conditions: nude mice; sActRIIB 10 mg/kg SC 1x/week, 5-FU 50 mg/kg IP 3 cycles, alone or together
Method: TOV-21G xenograft. 5×10^6 TOV-21G ovarian cancer cells were implanted subcutaneously into individual female athymic nu/nu mice (Harlan). Treatment was initiated at day 12 after tumor implantation, when the average tumor volume reached approximately 150 mm^3. The mice received PBS, sActRIIB (30 mg/kg, SC, 1×/week) or activin-A antibody (30 mg/kg, SC, 2×/week). In a separate chemotherapy combination experiment, the mice were treated with PBS, sActRIIB (10 mg/kg, SC, 1×/week), 5-FU (50 mg/kg, IP, 3 cycles, 4 daily injections per cycle) or sActRIIB and 5-FU combination at the same doses above. For all xenograft experiments, the tumor sizes were measured longitudinally by using an electronic caliper. Immediately prior to the 1st dose, the tumor-bearing mice were randomized to ensure even distribution in tumor sizes across different groups. Tumor volumes (mm^3) were calculated as tumor length (mm)×tumor width (mm)×tumor height (mm). Tumor weights were determined by necropsy.

[2] = test system: TOV-21G ovarian xenograft tumors; assay: sActRIIB and doxorubicin in TOV-21G tumor-bearing nude mice: tumor size and weight; assay type: in vivo, human; conditions: sActRIIB 10 mg/kg SC 1x/week, DOX 2 mg/kg IP 1x/week; 4-week study
Method: (§1) The objective of the present study was to examine the effect of pharmacological administration of sActRIIB, doxorubicin (dox), and sActRIIB plus doxorubicin, respectively, on body weight, tumor growth and muscle mass in nude mice implanted with TOV-21G ovarian xenograft tumors. Eight-week-old female Athymic nude mice were SC injected with 0.2 mL of 5×10^6 TOV-21G cells into the left site of the lower flank of the mice. After 10 days of tumor implantation, the mice were divided into 4 groups by body weight and tumor size and then treated with vehicle, sActRIIB, doxorubicin or the combination of sActRIIB and doxorubicin. In addition, a group of non-tumor bearing mice was used as normal control and received PBS.
(§2) Mice were weighed weekly. Body weight data were recorded longitudinally. Tumor size was measured longitudinally by using an electronic caliper. The following formula was used to calculate actual tumor volume (Tomayko M and Reynolds C, 1989): (Volume of a rectangular solid tumor: Tumor volume (mm^3)=length (mm)×width (mm)×height (mm) of tumor). At the end of the study, mice in all groups were subjected to terminal necropsy and lean carcass weight (excluding skin, adipose tissue, internal organs, and head) was determined by using standard anatomical dissection procedures. […] All results were expressed as the mean±SEM (standard error of the mean). […]

[3] = Activin-A antibody and doxorubicin in TOV-21G tumor-bearing nude mice: body weight and muscle mass; assay type: in vivo, mouse
Excerpt: (§3) The objective of this study was to examine the effects of pharmacological administration of activin-A antibody, doxorubicin, and activin-A antibody plus doxorubicin, on body weight, tumor growth and muscle mass in nude mice implanted with TOV-21G ovarian xenograft tumors. The activin-A antibody used was the same as described in the Materials section above. Eight-week-old female Athymic nude mice were each injected with 2.2×10^6 TOV-21G cells subcutaneously (SC) into the left site of the lower flank of the mice. On day 12 post tumor implantation, the mice were divided into 4 groups by body weight and tumor size and then treated with vehicle, activin-A antibody, doxorubicin, or the combination of activin-A antibody and doxorubicin. In addition, a group of non-tumor bearing mice was used as normal control and received PBS.
(§4) Mice were weighed weekly. Body weight data were recorded longitudinally. Tumor size was measured longitudinally by using an electronic caliper (Fred V. Fowler Company, Inc.). […] At the end of the study, mice in all groups were subjected to terminal necropsy and lean carcass weight (excluding skin, adipose tissue, internal organs, and head) was determined by using standard anatomical dissection procedures. […] All results were expressed as the mean±SEM. […]

[4] = test system: TOV-21G ovarian xenograft tumors; assay: Activin-A antibody and doxorubicin in TOV-21G tumor-bearing nude mice: tumor size and weight; assay type: in vivo, human; conditions: activin-A antibody 20 mg/kg SC 1x/week, DOX 4 mg/kg IP 1x/week; vs vehicle-treated
Excerpt: as §3, §4

[5] = sActRIIB and doxorubicin in TOV-21G tumor-bearing nude mice: body weight and muscle mass; assay type: in vivo, mouse
Method: as §1, §2

| Compound | rate of tumor growth [1] | tumor size and tumor weight vs vehicle-treated TOV-21G group [2] | body weight ([3]; TOV-21G tumor-bearing nude mice, activin-A antibody 20 mg/kg SC 1x/week, DOX 4 mg/kg IP 1x/week) | lean carcass weight and calf muscle mass ([3]; TOV-21G-implanted nude mice, necropsy at end of 5-week experiment) | tumor size and tumor weight (day 47) / tumor growth [4] | body weight ([5]; TOV-21G tumor-bearing nude mice, sActRIIB 10 mg/kg SC 1x/week, DOX 2 mg/kg IP 1x/week) | lean carcass weight and calf muscle mass ([5]; TOV-21G-implanted nude mice, necropsy at end of 4-week experiment) |
| --- | --- | --- | --- | --- | --- | --- | --- |
| O=c1[nH]cc(F)c(=O)[nH]1 [Antibody 5-FU, 5-Fluorouracil, reference compound] | decreased the rate of tumor growth significantly |  |  |  |  |  |  |
| COc1cccc2c1C(=O)c1c(O)c3c(c(O)c1C2=O)C[C@@](O)(C(=O)CO)C[C@@H]3O[C@H]1C[C@H](N)[C@H](O)[C@H](C)O1 [Doxorubicin, doxorubicin, reference compound] |  | significantly reduced tumor size and tumor weight | further decline (non-statistically significant) in body weight | no effect on the loss of lean carcass weight and calf muscle mass | capable of inhibiting TOV-21G tumor growth | further decline (non-statistically significant) in body weight | no effect on the loss of lean carcass weight and calf muscle mass |
